Source: US7396682B2, “Method for cell adhesion and wound healing” (Regen Biotech, Inc., priority 2000, dated 2008)
“Also recorded” adds a separate entry of the source.

Tests used:
[1] = test system: HCE cells; assay: Inhibition assay of HCE cell adhesion using matrix peptides and reagents; assay type: cell-based, human; conditions: HCE cells preincubated 30 min with reagent; for inhibition of cell adhesion to βig-h3: dishes coated with 10 μg/ml βig-h3; for inhibition of cell adhesion to fibronectin: dishes coated with 10 μg/ml fibronectin
Procedure: In order to identify cell surface receptors involved in the cell adhesion activity of βig-h3 protein, an inhibition assay was performed using various reagents.
Initially, plastic culture dishes were coated with 10 μg/ml fibronectin, βigh3-WT or βigh3-ΔRGD. HCE cells were preincubated for 30 min in media containing 5 mM EDTA, 100 μg/ml βigh3-WT, 100 μg/ml βigh3-ΔRGD, 1 mM RGD, 1 mM RGE or 100 μg/ml fibronectin, or none of them, and then assayed for cell adhesion as in Example 1.

[2] = test system: K562 cells; assay: K562 cell adhesion to coated proteins (hexosaminidase analysis); assay type: cell-based; conditions: 1 hour
Procedure: For another control experiment, K562 cells, known to express α5, but not α3 integrin, were used. K562 cells were inoculated onto plates coated with βigh3-WT, fibronectin, laminin, or type I collagen and incubated for 1 hour, followed by the hexosaminidase analysis.

[3] = test system: Human corneal epithelial (HCE) cells; assay: HCE cell adhesion and spreading assay on protein-coated plates; assay type: cell-based; conditions: HCE cells on coated recombinant protein
Procedure: Human corneal epithelial (HCE) cells used in this assay were cultured in DMEM ([…], Gibco BRL) supplemented with 15% fetal bovine serum, Gentamicin (40 μg/ml), insulin (5 μg/ml), cholera toxin (0.1 μg/ml) and human epidermal growth factor (hEGF) at 37° C. in 5% CO2.
The cell adhesion assay was performed as follows. First, the recombinant βig-h3 proteins or other extracellular matrix proteins were let to adhere to the bottoms of 96-well microculture plates (Falcon) by incubation at 37° C. for 1 hour and blocked with PBS containing 0.2% BSA. The coated extracellular matrix proteins were human plasma vitronectin (Promega), purified human plasma fibronectin (pFN), chicken collagen types I and II (Chemicon International Inc.), bovine collagen types IV and VI (Chemicon), mouse laminin (Chemicon), and bovine serum albumin (BSA) (Sigma). Cells were trypsinized and suspended in the culture media at a density of 2×10^5 cells/ml. 0.1 ml of the cell suspension was added to each well of the plates coated with the recombinant proteins.
Following incubation at 37° C. for 1 hour, unattached cells were removed by rinsing with PBS. Attached cells were incubated for 1 hour at 37° C. in 50 mM citrate buffer, pH 5.0, containing 3.75 mM p-nitrophenol-N-acetyl 1-β-D-glycosaminide as a hexosaminidase substrate and 0.25% Triton X-100, followed by the addition of 50 mM glycine buffer, pH 10.4, containing 5 mM EDTA to block the enzyme activity. A measurement was made of absorbance at 405 nm in a Multiskan MCC/340 microplate reader.
To determine cell area as an index for cell adhesion activity, 4×10^4 cells were applied to substrates in 48-well culture plates. The attached cells were fixed weith 8% glutaraldehyde (Sigma) and then stained with 0.25% Crystal Violet (Sigma) in 20% methanol. Measurement of cell areas was performed by Image-Pro plus software (Media Cybernetics). Experiments were repeated in triplicate with 200 or 300 measurements per site for each experiment. Data is reported as the mean area at specific time points±standard error of mean.

Molecule: RGE peptide: RGE peptide used at 1 mM in inhibition assay
- inhibition of cell adhesion to βig-h3 [1]: not inhibited

Molecule: O=C(O)CN(CCN(CC(=O)O)CC(=O)O)CC(=O)O [EDTA]
- inhibition of cell adhesion to fibronectin [1]: significantly inhibited
- inhibition of cell adhesion to βig-h3 [1]: significantly inhibited

Molecule: O=C(O)CN(CCOCCOCCN(CC(=O)O)CC(=O)O)CC(=O)O [EGTA]
- inhibition of cell adhesion to fibronectin [1]: partially inhibited
- inhibition of cell adhesion to βig-h3 [1]: partially inhibited

Molecule: RGD peptide: Arg-Gly-Asp peptide used at 1 mM in inhibition assay
- inhibition of cell adhesion to fibronectin [1]: significantly inhibited
- inhibition of cell adhesion to βig-h3 [1]: significantly inhibited

B1: vitronectin: human plasma vitronectin (Promega), coated extracellular matrix protein (protein)
chain: DQESCKGRCTEGFNVDKKCQCDELCSYYQSCCTDYTAECKPQVTRGDVFTMPEDEYTVYDDGEEKNNATVHEQVGGPSLTSDLQAQSKGNPEQTPVLKPEEEAPAPEVGASKPEGIDSRPETLHPGRPQPPAEEELCSGKPFDAFTDLKNGSLFAFRGQYCYELDEKAVRPGYPKLIRDVWGIEGPIDAAFTRINCQGKTYLFKGSQYWRFEDGVLDPDYPRNISDGFDGIPDNVDAALALPAHSYSGRERVYFFKGKQYWEYQFQHQPSQEECEGSSLSAVFEHFAMMQRDSWEDIFELLFWGRTSAGTRQPQFISRDWHGVPGQVDAAMAGRIYISGMAPRPSLAKKQRFRHRNRKGYRSQRGHSRGRNQNSRRPSRATWLSLFSSEESNLGANNYDDYRMDWLVPATCEPIQSVFFFSGDKYYRVNLRTRRVDTVDPPYPRSIAQYWLGCPAPGHL
- adhesion of K562 cells to coated protein [2]: adhered

B2: βig-h3 D-II: recombinant polypeptide, 2nd fas-1 domain of βig-h3, amino acids 237-377 (SEQ ID NO:24) (protein)
chain: STITNNIQQIIEIEDTFETLRAAVAASGLNTMLEGNGQYTLLAPTNEAFEKIPSETLNRILGDPEALRDLLNNHILKSAMCAEAIVAGLSVETLEGTTLEVGCSGDMLTINGKAIISNKDILATNGVIHYIDELLIPDSAK
modifications: left off: small tags and cut ends
- HCE cell adhesion activity [3]: equally active compared to the wild type βig-h3; also recorded: high cell attachment activity
